Measurements published in paper PMC3883354 (Bioorganic & medicinal chemistry, 2013).

Target: T1, human GVIA iPLA2 (Homo sapiens, UniProt O60733)
T1 sequence (O60733 1-806): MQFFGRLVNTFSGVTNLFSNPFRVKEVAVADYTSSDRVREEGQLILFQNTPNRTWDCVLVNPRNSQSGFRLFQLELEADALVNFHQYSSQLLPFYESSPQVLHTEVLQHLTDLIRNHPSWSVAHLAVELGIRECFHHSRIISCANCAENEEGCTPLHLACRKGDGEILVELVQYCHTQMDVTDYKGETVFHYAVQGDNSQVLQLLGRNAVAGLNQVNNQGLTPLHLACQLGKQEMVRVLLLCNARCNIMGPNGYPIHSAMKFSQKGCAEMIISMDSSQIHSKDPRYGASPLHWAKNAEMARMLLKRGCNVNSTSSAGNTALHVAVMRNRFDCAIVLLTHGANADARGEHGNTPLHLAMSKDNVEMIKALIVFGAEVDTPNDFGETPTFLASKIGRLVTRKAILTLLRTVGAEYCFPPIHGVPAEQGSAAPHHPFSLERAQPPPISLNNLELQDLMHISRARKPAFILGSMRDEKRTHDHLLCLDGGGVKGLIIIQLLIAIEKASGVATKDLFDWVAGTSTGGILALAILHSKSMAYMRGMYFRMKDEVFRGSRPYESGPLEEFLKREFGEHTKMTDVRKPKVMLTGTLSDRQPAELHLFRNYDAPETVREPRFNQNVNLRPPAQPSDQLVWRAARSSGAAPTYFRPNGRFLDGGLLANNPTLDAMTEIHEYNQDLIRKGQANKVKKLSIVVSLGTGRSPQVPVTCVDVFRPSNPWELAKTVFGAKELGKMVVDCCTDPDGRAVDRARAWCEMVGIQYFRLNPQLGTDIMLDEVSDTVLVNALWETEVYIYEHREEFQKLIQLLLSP
Assay: mixed micelle-based modified Dole assay, GVIA iPLA2 inhibition
Assay type: biochemical
Details: for fold weaker towards iPLA2 than FKGK11: compared with FKGK11

| Compound | fold weaker towards iPLA2 than FKGK11 | times weaker inhibitor towards GVIA iPLA2 than FKGK18 (compared with FKGK18) [times] |
| --- | --- | --- |
| O=C(CCCCc1ccc(-c2ccccc2)cc1)C(F)(F)F [5e, 6-(Biphenyl-4-yl)-1,1,1-trifluorohexan-2-one] | 13 fold |  |
| O=C(CCCCc1cccc2ccccc12)C(F)(F)F [5a, 1,1,1-Trifluoro-6-(naphthalen-1-yl)hexan-2-one] |  | 9 |
| O=C(CCCCc1ccc(-c2ccccc2)cc1)C(F)(F)C(F)(F)F [6e, 7-(Biphenyl-4-yl)-1,1,1,2,2-pentafluoroheptan-3-one] | ninefold weaker |  |
